Test results: paper PMC12024264, “Frog Skin Peptides Hylin-a1, AR-23, and RV-23: Promising Tools Against Carbapenem-Resistant Escherichia coli and Klebsiella pneumoniae Infections” (Antibiotics, 2025)
Where no end group is shown, it is not given here.

Key:
K. pneumoniae ATCC 10031 = test: Biofilm initial cell attachment assay; type: cell-based, Klebsiella pneumoniae; conditions: 2 h; for concentration of total reduction in biofilm attachment (antibiofilm MIC): initial cell attachment, 37 °C, peptides 50-1.56 μM, absorbance 570 nm
Method: We also investigated the ability of peptides to interfere with biofilm using three different assays (refer to the Section 4) against K. pneumonia and E. coli.
Figure 3 The effect of Hylin-a1, AR-23, and RV-23 on the initial cell attachment of biofilm formation. […] Statistical analysis was performed by One-way ANOVA followed by Dunnett’s multiple comparisons test.
The anti-biofilm activity of peptides was evaluated against E. coli and K. pneumoniae ATCC strains. Bacterial cultures were grown overnight, then diluted to an OD600 of 0.1 in MH broth supplemented with 1% (v/v) glucose. A 100 μL aliquot of the bacterial suspension was combined with an equal volume of peptides at non-cytotoxic concentrations in a 96-well plate and incubated at 37 °C for 2 h. Following incubation, non-adherent planktonic cells were removed by washing with phosphate-buffered saline (PBS, Microtech), and adherent cells were incubated with MTT solution for 3 h at 37 °C. Additionally, adherent cells were collected, resuspended in PBS, and plated on agar for viable cell counting. Serial dilutions were performed for each peptide, and CFU/mL were determined after 20 h of incubation at 37 °C (Figure S2). Absorbance was measured at 570 nm to evaluate adhesion percentage.

E. coli = test: Checkerboard assay with meropenem; conditions: for MIC of peptide in combination with meropenem: checkerboard, 20 h, OD600
HaCaT cells = test: MTT cytotoxicity assay on HaCaT keratinocytes; type: cell-based, human; conditions: for 50% cytotoxic concentration (CC50): HaCaT keratinocytes, 20 h exposure, 0.39 to 100 μM; for CC50 obtained by the fitting of the curves: HaCaT, 20 h, Figure 1
Method: To evaluate their safety profile, cytotoxicity assays were performed on HaCaT keratinocytes. Cells were exposed for 20 h to peptides at doses ranging from 0.39 to 100 μM.
Figure 1 Dose–response curves for the AMPs against HaCaT cell line and CC50 (reported in μM), HillSlope, and R^2 values were obtained by the fitting of the curves. The viability effect of Hylin-a1, AR-23, and RV-23 was analyzed on HaCaT cells. The cell monolayer was treated with serial dilutions of peptides for 20 h. Untreated cells were used as a positive control, while dimethyl sulfoxide (DMSO) was used as a negative control. HillSlope: The measure of the steepness of the dose–response curve. […] R^2 (coefficient of determination) indicates how well the model fits the data. Ranges from 0 to 1, with 1 representing a perfect fit.
The cytotoxic effect of peptides was examined using 3-(4,5 dimethylthiazol-2-yl)-2,5-diphenyltetrazolium bromide (MTT), as previously described. Cell viability, expressed as a percentage, was calculated in relation to the viability of untreated cells (+). DMSO was used as negative control (−). The human keratinocyte cell line HaCaT (Cell Lines Service, CLS-, Eppelheim, Germany) was used as a cellular model to evaluate the peptides’ cytotoxicity. HaCaT cells were grown in Dulbecco’s Modified Eagle Medium (DMEM) with 4.5 g/L of glucose (Microtech, Naples, Italy) supplemented with an antibiotic solution 100× (Himedia, Naples, Italy) and 10% Fetal Bovine Serum (FBS, Microtech).

K. pneumoniae 1746 = conditions: carbapenemase VIM (class B), rectal swab; microdilution, 37 °C, 20 h; N/D = no antibacterial activity detected
Method: (§1) Each strain was grown in Mueller Hinton Broth (MH Broth), and 5 × 10^5 CFU/mL was used to evaluate antibacterial activity. Clinical carbapenem-resistant K. pneumoniae and E. coli isolates were collected at the AOU of Virology and Microbiology of the University of Campania “Luigi Vanvitelli”.
(§2) The antimicrobial activity of Hylin-a1, AR-23, and RV-23 was investigated using a microdilution assay as reported by the National Committee on Clinical Laboratory Standards (NCCLS) guidelines against a broad spectrum of Gram-negative bacteria. […] In 96-well, the standardized bacterial inoculum (5 × 10^5 colony forming units, CFU/mL) was inoculated together with AMPs and incubated at 37 °C for 20 h. After the time of incubation, optical density (OD) was measured at TECAN, and data were expressed as a percentage of inhibition. In addition to assessing the MIC values, the bactericidal effect was also studied as reported elsewhere.

E. coli 1441 = conditions: carbapenemase KPC (class A), rectal swab, N/D = no antibacterial activity detected; for MIC: microdilution, 37 °C, 20 h
Method: as §1, §2

K. pneumoniae 1745 = conditions: carbapenemase KPC (class A), ulcer, N/D = no antibacterial activity detected; for MIC: microdilution, 37 °C, 20 h
Method: as §1, §2

E. coli 2267 = conditions: carbapenemase NDM (class B), rectal swab, N/D = no antibacterial activity detected; for MIC: microdilution, 37 °C, 20 h
Method: as §1, §2

E. coli 716 = conditions: carbapenemases IMP1, VIM, NDM (class B), urine, N/D = no antibacterial activity detected; for MIC: microdilution, 37 °C, 20 h
Method: as §1, §2

E. coli 1376 = conditions: carbapenemase NDM (class B), rectal swab, N/D = no antibacterial activity detected; for MIC: microdilution, 37 °C, 20 h
Method: as §1, §2

K. pneumoniae 1711 = conditions: carbapenemase KPC (class A), rectal swab, N/D = no antibacterial activity detected; for MIC: microdilution, 37 °C, 20 h
Method: as §1, §2

E. coli 3140 = conditions: carbapenemase OXA-48 (class D), urine; microdilution, 37 °C, 20 h; N/D = no antibacterial activity detected
Method: as §1, §2

Row | Substance | reduction of biofilm (initial attachment) (K. pneumoniae ATCC 10031; at 50 μM) | concentration of total reduction in biofilm attachment (antibiofilm MIC) (K. pneumoniae ATCC 10031) | MIC of peptide in combination with meropenem (E. coli) | combinatory effect of peptide and meropenem (E. coli; interpretation of FICI by Table 4) | 50% cytotoxic concentration (CC50) (HaCaT cells) | CC50 obtained by the fitting of the curves (HaCaT cells) | MIC (K. pneumoniae 1746) | MIC (E. coli 1441) | MBC (K. pneumoniae 1745) | MIC (K. pneumoniae 1745) | MBC (E. coli 2267) | MIC (E. coli 2267) | MIC (E. coli 716) | MIC (E. coli 1376) | MBC (K. pneumoniae 1711) | MIC (K. pneumoniae 1711) | MIC (E. coli 3140) | MBC (E. coli 1441) | MBC (E. coli 716) | MBC (E. coli 1376)
1 | IFGAILPLALGALKNLIK-NH2 [Hylin-a1] | 80–100% | 50 µM | 3.125 µM | partial synergism | 100 µM | 102.6 µM | 25 µM | 50 µM | 50 µM | 50 µM | 50 µM | 25 µM | 25 µM | 25 µM | 50 µM | 25 µM | 50 µM | – | – | –
2 | RIGVLLARLPKLFSLFKLMGKKV-NH2 [RV-23] | – | 50 µM | 6.25 µM | – | 100 µM | 101.8 µM | 12.5 µM | 6.25 µM | 25 µM | 12.5 µM | 12.5 µM | 12.5 µM | 25 µM | 6.25 µM | 12.5 µM | 12.5 µM | 25 µM | 12.5 µM | 25 µM | 6.25 µM
